The results in this text go back to ChEMBL document CHEMBL1145891, “Design and synthesis of trans-3-(2-(4-((3-(3-(5-methyl-1,2,4-oxadiazolyl))- phenyl)carboxamido)cyclohexyl)ethyl)-7-methylsulfonyl-2,3,4,5-tetrahydro-1H-3-benzazepine (SB-414796): a potent and selective dopamine D3 receptor antagonist” (J Med Chem, 2003).

One test addresses D(2) dopamine receptor (Homo sapiens, UniProt P14416). Nature of the test: Binding affinity against human Dopamine receptor D2 expressed in CHO cells by using [125I]iodosulpiride as radioligand. It is filed as cell-based.
In the next test the target is D(3) dopamine receptor (Homo sapiens, UniProt P35462). Put plainly: Binding affinity against human Dopamine receptor D3 expressed in CHO cells by using [125I]iodosulpiride as radioligand. It is filed as cell-based.
Sequence of D(3) dopamine receptor (P35462 whole entry): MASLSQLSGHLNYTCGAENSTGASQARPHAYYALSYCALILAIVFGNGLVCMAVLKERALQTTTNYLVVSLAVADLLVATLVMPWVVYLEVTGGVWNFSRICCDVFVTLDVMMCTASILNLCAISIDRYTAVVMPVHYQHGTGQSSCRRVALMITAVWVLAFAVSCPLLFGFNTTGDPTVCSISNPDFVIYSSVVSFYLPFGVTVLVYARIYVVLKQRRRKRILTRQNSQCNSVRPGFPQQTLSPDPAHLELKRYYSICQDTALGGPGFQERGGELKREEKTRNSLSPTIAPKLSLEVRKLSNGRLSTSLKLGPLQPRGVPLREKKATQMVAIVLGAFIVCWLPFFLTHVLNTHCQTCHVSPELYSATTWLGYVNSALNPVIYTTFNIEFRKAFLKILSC

Broadly, the Ki is a dissociation constant, usually derived from enzyme kinetics or from competition with a known ligand. Read a low Ki as tighter binding.

Sequence of D(2) dopamine receptor (P14416 whole entry): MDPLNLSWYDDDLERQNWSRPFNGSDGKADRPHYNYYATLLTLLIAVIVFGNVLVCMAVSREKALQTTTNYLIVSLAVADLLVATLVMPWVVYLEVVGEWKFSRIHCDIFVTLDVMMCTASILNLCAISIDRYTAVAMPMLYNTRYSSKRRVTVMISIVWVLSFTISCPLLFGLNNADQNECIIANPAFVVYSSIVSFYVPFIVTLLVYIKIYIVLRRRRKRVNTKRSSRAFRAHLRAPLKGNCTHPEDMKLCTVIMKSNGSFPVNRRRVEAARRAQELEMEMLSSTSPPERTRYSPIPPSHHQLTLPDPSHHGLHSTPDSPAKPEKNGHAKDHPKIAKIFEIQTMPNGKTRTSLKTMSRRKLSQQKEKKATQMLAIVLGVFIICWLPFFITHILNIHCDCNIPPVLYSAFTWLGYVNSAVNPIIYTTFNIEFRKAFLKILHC

Regarding `COc1ccc(/C=C/C(=O)N[C@H]2CC[C@H](CCN3CCc4ccc(OS(C)(=O)=O)cc4CC3)CC2)cc1`, the Ki on D(2) dopamine receptor was 31.6 nM; at D(3) dopamine receptor it was 1 nM.

Regarding `Cc1cnc(-c2cccc(C(=O)N[C@H]3CC[C@H](CCN4CCc5ccc(S(C)(=O)=O)cc5CC4)CC3)c2)o1`, the Ki at D(2) dopamine receptor is 631 nM; at D(3) dopamine receptor, 7.94 nM.

For `Cc1cc(C(=O)N[C@H]2CC[C@H](CCN3CCc4ccc(OS(C)(=O)=O)cc4CC3)CC2)c2ccccc2n1`, the Ki at D(2) dopamine receptor is 631 nM; at D(3) dopamine receptor it was 20 nM.

With `Cc1ccc2c(C(=O)N[C@H]3CC[C@H](CCN4CCc5ccc(S(C)(=O)=O)cc5CC4)CC3)ccc(F)c2n1`, the values for the Ki on D(2) dopamine receptor and at D(3) dopamine receptor were 794 nM and 3.16 nM, respectively.

For `CS(=O)(=O)Oc1ccc2c(c1)CCN(CC[C@H]1CC[C@H](NC(=O)/C=C/c3ccc(F)cc3)CC1)CC2`, the values for the Ki on D(2) dopamine receptor and on D(3) dopamine receptor were 63.1 nM and 0.794 nM, respectively.

In the case of `CS(=O)(=O)c1ccc2c(c1)CCN(CC[C@H]1CC[C@H](NC(=O)/C=C/c3ccc(C#N)cc3)CC1)CC2`, the Ki at D(2) dopamine receptor is 126 nM; at D(3) dopamine receptor, 2 nM.

As to `COc1cccc(/C=C/C(=O)N[C@H]2CC[C@H](CCN3CCc4ccc(OS(C)(=O)=O)cc4CC3)CC2)c1`, the Ki on D(2) dopamine receptor was 63.1 nM; at D(3) dopamine receptor, 2 nM.

On to `CS(=O)(=O)c1ccc2c(c1)CCN(CC[C@H]1CC[C@H](NC(=O)/C=C/c3c(F)cccc3F)CC1)CC2`, for which the inhibition constant (Ki) is 398 nM on D(2) dopamine receptor and 2.51 nM at D(3) dopamine receptor.

In the case of `CS(=O)(=O)c1ccc2c(c1)CCN(CC[C@H]1CC[C@H](NC(=O)/C=C/c3ccccc3C#N)CC1)CC2`, the values for the Ki on D(2) dopamine receptor and at D(3) dopamine receptor were 158 nM and 1.58 nM, respectively.

At D(3) dopamine receptor, `CS(=O)(=O)Oc1ccc2c(c1)CCN(CC[C@H]1CC[C@H](NC(=O)/C=C/c3cccc(F)c3)CC1)CC2` showed a Ki of 1.26 nM.

With `CS(=O)(=O)c1ccc2c(c1)CCN(CC[C@H]1CC[C@H](NC(=O)/C=C/c3cccc(F)c3)CC1)CC2`, the Ki was 126 nM at D(2) dopamine receptor and 1.58 nM at D(3) dopamine receptor.

For the molecule `CS(=O)(=O)c1ccc2c(c1)CCN(CC[C@H]1CC[C@H](NC(=O)/C=C/c3cccc(C#N)c3)CC1)CC2`, the inhibitory constant (Ki) at D(2) dopamine receptor was 158 nM; at D(3) dopamine receptor, 2 nM.

`CS(=O)(=O)Oc1ccc2c(c1)CCN(CC[C@H]1CC[C@H](NC(=O)/C=C/c3ccccc3F)CC1)CC2` showed a Ki on D(3) dopamine receptor of 1.26 nM.

`CS(=O)(=O)c1ccc2c(c1)CCN(CC[C@H]1CC[C@H](NC(=O)/C=C/c3ccccc3F)CC1)CC2`: the Ki at D(2) dopamine receptor was 126 nM; at D(3) dopamine receptor, 1.26 nM.

Turning to `CS(=O)(=O)c1ccc2c(c1)CCN(CC[C@H]1CC[C@H](NC(=O)/C=C/c3cc(F)cc(F)c3)CC1)CC2`, the results for the inhibitory constant (Ki) at D(2) dopamine receptor and at D(3) dopamine receptor were 251 nM and 2 nM, respectively.

Turning to `CS(=O)(=O)c1ccc2c(c1)CCN(CC[C@H]1CC[C@H](NC(=O)/C=C/c3ccc(F)cc3)CC1)CC2`, the Ki was 79.4 nM on D(2) dopamine receptor and 1 nM at D(3) dopamine receptor.

As to `COc1ccccc1/C=C/C(=O)N[C@H]1CC[C@H](CCN2CCc3ccc(OS(C)(=O)=O)cc3CC2)CC1`, the figures for the Ki on D(2) dopamine receptor and on D(3) dopamine receptor were 100 nM and 1.26 nM, respectively.

As for `CS(=O)(=O)Oc1ccc2c(c1)CCN(CC[C@H]1CC[C@H](NC(=O)c3cccc(-n4cccc4)c3)CC1)CC2`, the Ki on D(2) dopamine receptor is 251 nM; at D(3) dopamine receptor it was 3.16 nM.

Consider `Cc1ncc(-c2cccc(C(=O)N[C@H]3CC[C@H](CCN4CCc5ccc(OS(C)(=O)=O)cc5CC4)CC3)c2)o1`, for which the Ki on D(2) dopamine receptor is 200 nM; at D(3) dopamine receptor, 1.26 nM.

For `Cc1ccc2c(C(=O)N[C@H]3CC[C@H](CCN4CCc5ccc(OS(C)(=O)=O)cc5CC4)CC3)cccc2n1`, the Ki on D(2) dopamine receptor was 200 nM; at D(3) dopamine receptor, 1.26 nM.

Consider `Cc1ccc2c(C(=O)N[C@H]3CC[C@H](CCN4CCc5ccc(S(C)(=O)=O)cc5CC4)CC3)cccc2n1`, for which the Ki was 316 nM on D(2) dopamine receptor and 3.98 nM on D(3) dopamine receptor.

For `CS(=O)(=O)Oc1ccc2c(c1)CCN(CC[C@H]1CC[C@H](NC(=O)c3cccc(-c4ncccn4)c3)CC1)CC2`, the Ki was 316 nM at D(2) dopamine receptor and 2 nM on D(3) dopamine receptor.

On to `Cc1ncc(-c2cccc(C(=O)N[C@H]3CC[C@H](CCN4CCc5ccc(S(C)(=O)=O)cc5CC4)CC3)c2)o1`, for which the Ki was 631 nM on D(2) dopamine receptor and 6.31 nM on D(3) dopamine receptor.

`Cn1nccc1-c1cccc(C(=O)N[C@H]2CC[C@H](CCN3CCc4ccc(S(C)(=O)=O)cc4CC3)CC2)c1`: the Ki was 501 nM at D(2) dopamine receptor and 3.16 nM at D(3) dopamine receptor.

Regarding `Cc1coc(-c2cccc(C(=O)N[C@H]3CC[C@H](CCN4CCc5ccc(OS(C)(=O)=O)cc5CC4)CC3)c2)n1`, the Ki on D(2) dopamine receptor was 200 nM; on D(3) dopamine receptor, 3.16 nM.

For the molecule `Cc1nc(-c2cccc(C(=O)N[C@H]3CC[C@H](CCN4CCc5ccc(OS(C)(=O)=O)cc5CC4)CC3)c2)no1`, the Ki on D(2) dopamine receptor is 200 nM; on D(3) dopamine receptor, 2.51 nM.

Regarding `Cc1cc(-c2cccc(C(=O)N[C@H]3CC[C@H](CCN4CCc5ccc(S(C)(=O)=O)cc5CC4)CC3)c2)on1`, the Ki is 501 nM on D(2) dopamine receptor and 3.98 nM at D(3) dopamine receptor.

Consider `CS(=O)(=O)Oc1ccc2c(c1)CCN(CC[C@H]1CC[C@H](NC(=O)c3cccc4ccccc34)CC1)CC2`, for which the Ki at D(2) dopamine receptor is 316 nM; at D(3) dopamine receptor, 2.51 nM.

On to `CS(=O)(=O)Oc1ccc2c(c1)CCN(CC[C@H]1CC[C@H](NC(=O)c3cccc4ncccc34)CC1)CC2`, for which the inhibitory constant (Ki) at D(2) dopamine receptor was 200 nM; on D(3) dopamine receptor it was 2 nM.

Regarding `Cc1cc(-c2cccc(C(=O)N[C@H]3CC[C@H](CCN4CCc5ccc(OS(C)(=O)=O)cc5CC4)CC3)c2)on1`, the results for the Ki on D(2) dopamine receptor and at D(3) dopamine receptor were 158 nM and 2 nM, respectively.

Turning to `Cc1cnc(-c2cccc(C(=O)N[C@H]3CC[C@H](CCN4CCc5ccc(OS(C)(=O)=O)cc5CC4)CC3)c2)o1`, the values for the Ki on D(2) dopamine receptor and at D(3) dopamine receptor were 316 nM and 3.16 nM, respectively.
